Patent publication US11466007B2, “Substituted lactams showing serotonin 5-HT receptor activity” (Sumitomo Pharma Co., Ltd., priority 2018, dated 2022)

assay: Test 4: metabolic stability test in human hepatic microsome; format: in vitro ADME; details: 0.1 mg/mL microsome, 0.1 μmol/L compound, NADPH, 37° C., 30 minutes
Experimental: Test 4: Metabolic Stability Test in Human Hepatic Microsome
The stability of the present compound in human hepatic microsome metabolism was evaluated as mentioned below. Human hepatic microsome was obtained from Xenontech. Human hepatic microsome, NADPH, and each test compound were mixed in 25 mmol/L phosphate buffer solution (pH 7.4) to reach the following concentrations as shown below, and the mixture was incubated at 37° C. for 30 minutes. • Human hepatic microsome: 0.1 mg/mL • NAPDH: 3.2 mmol/L • Test compound: 0.1 μmol/L
The residual ratio of the test compound in each sample after 30 minutes was measured by LC-MS, and the metabolic stability in human hepatic microsome was calculated from the following formula. Metabolic stability in human hepatic microsome (mL/min/mg protein)=−LN(residual ratio)/30/0.1

| Compound | Metabolic stability in human hepatic microsome [mL/min/mg protein] |
| --- | --- |
| Cc1nc2c(o1)C(=O)N(CCN1CCC(c3noc4ccccc34)CC1)CCC2 [Example 154] | <0.05 |
| Cn1ncc2c1CCCC(CCN1CCC(c3noc4ccccc34)CC1)C2=O (centres unmarked) [Example 30] | 0.065 |
| CC(C)c1nc2c(o1)C(=O)N(CCN1CCC(c3noc4ccccc34)CC1)CC2 [Example 164] | 0.097 |
| O=C1c2ncccc2CCN1CCN1CCC(c2noc3cc(F)ccc23)CC1 [Example 4] | 0.011 |
| Cc1ncc2c(n1)CCN(CCN1CCN(c3nsc4ccccc34)CC1)C2=O [Example 90] | 0.070 |
| CCn1ncc2c1CCN(CCN1CCN(c3nsc4ccccc34)CC1)C2=O [Example 64] | 0.064 |
| Cn1cc2c(n1)C(=O)N(CCN1CCN(c3nsc4ccccc34)CC1)CC2 [Example 50] | 0.038 |
| Cn1ccc2c1CCCN(CCN1CCC(c3noc4ccccc34)CC1)C2=O [Example 103, 5-{2-[4-(1,2-Benzoisoxazol-3-yl)piperidin-1-yl]ethyl}-1-methyl-5,6,7,8-tetrahydropyrrolo[3,2-c]azepin-4(1H)-one] | <0.01 |
| Cn1cc2c(n1)CCN(CCN1CCN(c3noc4ccccc34)CC1)C2=O [Example 81] | <0.01 |
| O=C1c2ncccc2CCN1CCN1CCN(c2nsc3ccccc23)CC1 [Example 7] | 0.041 |
| Cc1noc2c1C(=O)N(CCN1CCC(c3noc4ccccc34)CC1)CC2 [Example 33] | 0.074 |
| Cc1nc2c(o1)CCCN(CCN1CCC(c3noc4ccccc34)CC1)C2=O [Example 157] | <0.05 |
| O=C1c2cncnc2CCN1CCN1CCC(c2noc3ccccc23)CC1 [Example 57] | 0.013 |
| Cn1cnc2c1C(=O)N(CCN1CCC(c3noc4ccccc34)CC1)CCC2 [Example 134] | <0.05 |
| O=C1c2cccnc2CCN1CCN1CCN(c2nsc3ccccc23)CC1 [Example 9] | 0.100 |
| Cc1nn(C)c2c1C(=O)N(CCN1CCC(c3noc4ccccc34)CC1)CCC2 [Example 91] | <0.05 |
| Cc1ccc2onc(C3CCN(CCN4CCc5cccnc5C4=O)CC3)c2c1 [Example 89] | 0.050 |
| Cn1ccc2c1CCCN(CCN1CCN(c3noc4ccccc34)CC1)C2=O [Example 109, 5-{2-[4-(1,2-Benzoisoxazol-3-yl)piperazin-1-yl]ethyl}-1-methyl-5,6,7,8-tetrahydropyrrolo[3,2-c]azepin-4 (H)-one] | <0.01 |
| O=C1c2c(Br)n[nH]c2CCN1CCN1CCC(c2noc3ccccc23)CC1 [Example 192, 5-{2-[4-(1,2-Benzoisoxazol-3-yl)piperidin-1-yl]ethyl}-3-bromo-1,5,6,7-tetrahydro-4H-pyrazolo[4,3-c]pyridin-4-one] | <0.05 |

| Compound | Metabolic stability in human hepatic microsome [mL/min/mg protein] |
| --- | --- |
| Cc1nc2c(o1)C(=O)N(CCN1CCN(c3nsc4ccccc34)CC1)CC2 [Example 45] | 0.032 |
| Cc1ncc2c(=O)n(CCN3CCC(c4noc5ccccc45)CC3)ccc2n1 [Example 194, 6-{2-[4-(1,2-Benzoisoxazol-3-yl)piperidin-1-yl]ethyl}-2-methylpyrido[4,3-d]pyrimidin-5(6H)-one] | <0.05 |
| Cn1cc2c(n1)C(=O)N(CCN1CCC(c3noc4ccccc34)CC1)CC2 [Example 156] | <0.05 |
| O=C1c2nc[nH]c2CCN1CCN1CCC(c2noc3ccccc23)CC1 [Example 191, 5-{2-[4-(1,2-Benzoisoxazol-3-yl)piperidin-1-yl]ethyl}-6,7-dihydro[1,3]imidazolo[4,5-c]pyridin-4(5H)-one] | <0.05 |
| Cc1cc2c(cn1)C(=O)N(CCN1CCC(c3noc4ccccc34)CC1)CC2 [Example 135] | <0.05 |
| O=C1c2nc(F)ccc2CCN1CCN1CCC(c2noc3ccccc23)CC1 [Example 188, 7-{2-[4-(1,2-Benzoisoxazol-3-yl)piperidin-1-yl]ethyl}-2-fluoro-6,7-dihydro-1,7-naphthyridin-8(5H)-one] | <0.05 |
| O=C1c2ncoc2CCN1CCN1CCC(c2noc3ccccc23)CC1 [Example 190, 5-{2-[4-(1,2-Benzoisoxazol-3-yl)piperidin-1-yl]ethyl}-6,7-dihydro[1,3]oxazolo[4,5-c]pyridin-4(5H)-one] | <0.05 |
| O=C1c2cncnc2CCN1CCN1CCN(c2nsc3ccccc23)CC1 [Example 58] | 0.092 |
| COc1ncc2c(n1)CCN(CCN1CCC(c3noc4ccccc34)CC1)C2=O [Example 176] | <0.05 |
| Cn1ncc2c1CCCN(CCN1CCN(c3nsc4ccccc34)CC1)C2=O [Example 44] | 0.04 |
| Cc1nn(C)c2c1C(=O)N(CCN1CCN(c3noc4ccccc34)CC1)CCC2 [Example 92] | 0.065 |
| O=c1c2ncccc2ccn1CCN1CCC(c2noc3cc(F)ccc23)CC1 [Example 12] | 0.02 |
| O=c1c2ncccc2ccn1CCN1CCN(c2noc3ccccc23)CC1 [Example 117] | <0.05 |
| CC(CN1CCC(c2noc3cc(F)ccc23)CC1)N1CCc2cccnc2C1=O (centres unmarked) [Example 122] | <0.05 |
| O=C1c2cn(C3CC3)nc2CCN1CCN1CCC(c2noc3ccccc23)CC1 [Example 76] | 0.018 |
| Cc1c2c(nn1C)CCN(CCN1CCC(c3noc4ccccc34)CC1)C2=O [Example 37, 5-{2-[4-(1,2-Benzoisoxazol-3-yl)piperidin-1-yl]ethyl}-2,3-dimethyl-2,5,6,7-tetrahydro-4H-pyrazolo[4,3-c]pyridin-4-one] | 0.017 |
| COc1cc2c(cn1)C(=O)N(CCN1CCC(c3noc4ccccc34)CC1)CC2 [Example 14] | <0.01 |
| O=C1c2[nH]ncc2CCN1CCN1CCC(c2noc3ccccc23)CC1 [Example 98, 6-{2-[4-(1,2-Benzoisoxazol-3-yl)piperidin-1-yl]ethyl}-1,4,5,6-tetrahydro-7H-pyrazolo[3,4-c]pyridin-7-one] | 0.013 |
| Cc1ncc2c(n1)CCN(CCN1CCC(c3noc4ccccc34)CC1)C2=O [Example 88, 6-{2-[4-(1,2-Benzoisoxazol-3-yl)piperidin-1-yl]ethyl}-2-methyl-7,8-dihydropyrido[4,3-d]pyrimidin-5(6H)-one] | <0.01 |
